Read-outs that look alike come from different tables or passages of the source.
Columns and labels:
cancer cell lines = experiment: Cancer cell proliferation activity (CellTiterGlo, 72 h); format: cell-based; details: for IC50: 72 h, read-out: IC50
Summary of the method: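 Cells seeded overnight at 37 °C, then dosed with compound at 0.1% final DMSO and incubated 72 h at 37 °C (5% or 10% CO2 by medium).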

[1] = biological target: human cytidine deaminase (CDA) (Homo sapiens, UniProt P32320); experiment: Metabolism by human cytidine deaminase (CDA), substrate absorbance at 290 nm; details: 12 nM CDA, 50 and 200 uM substrate, 37° C., pH 7.5; figure legends FIG. 4-9
human cytidine deaminase (CDA), sequence (P32320 whole entry): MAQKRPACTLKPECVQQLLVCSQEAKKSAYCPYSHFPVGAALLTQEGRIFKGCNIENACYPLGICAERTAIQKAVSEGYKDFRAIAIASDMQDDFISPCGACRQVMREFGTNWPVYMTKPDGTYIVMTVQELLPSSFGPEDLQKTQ
Method: Transfer 7.2 μl of each of the substrate DMSO stock in step 2 into a 500 μl 96-Well V-bottom Microplate, clear SBS footprint, cat #P-96-450V-C
Add 352.8 μl assay buffer to the wells
For deaminated product compounds mix 4 μl product with 196 μl assay buffer
This was incubated at 37° C. for 1 h. 200 μl of this mixture was transferred into the assay plate to serve as the product control.
Product+buffer: mix 80 ul of the 2.5× intermediate product stocks (from step 3) with 120 ul assay buffer into product control (no enzyme) wells
Incubate the plate alongside the 20 nM CDA enzyme intermediate stock at 37° C. to temperature equilibrate reagents
Add 120 μl of the 20 nM enzyme mix into the Substrate+CDA wells and start reading at 290 nm every 30 s for about 60 min
50 and 200 uM substrate and product
In 100 mM Tris, pH 7.5, 100 mM KCl, 0.8% carryover DMSO
5 min incubation at 37° C.
Absorbance at 290 nm every 30 s at 37° C. for 1 h using FlexStation 3
Convert A290 to concentration of substrate remaining at time t after enzyme addition:
[formula] • where: • St=absorbance reading of: substrate+CDA wells at time t • So=Average absorbance reading of: substrate+buffer wells • Po=Average absorbance reading of: product+buffer wells • [S]t=initial substrate concentration • Use GraphPad to plot [substrate] against time to calculate initial velocity or slope (μMs^−1) i.e. the linear range of each curve • Express rate in s^−1 by dividing initial velocity by the total enzyme concentration.
Plot rate against [substrate] and fit data to standard Michaelis Menten equation to obtain kcat and KM parameters.

C[C@]1(CO)O[C@@H](n2cc(F)c(N)nc2=O)C[C@@H]1O [Cpd. No. 4, 4-amino-5-fluoro-1-((2R,4S,5R)-4-hydroxy-5-(hydroxymethyl)-5-methyltetrahydrofuran-2-yl)pyrimidin-2(1H)-one]
IC50 (cancer cell lines; 5637 cell line (bladder)): 30 nM | IC50 (cancer cell lines; CLS439 cell line (bladder)): 17600 nM | IC50 (cancer cell lines; HS729 cell line (muscle)): 1410 nM | IC50 (cancer cell lines; JAR cell line (placenta)): > 50000 nM | IC50 (cancer cell lines; U20S cell line, bone): > 50000 nM | IC50 (cancer cell lines; Homo sapiens, 22Rv1, 72 h, 22RV1 cell line (prostate)): 400 nM | IC50 (cancer cell lines; Homo sapiens, 786-0, 72 h, 786O cell line (kidney)): > 50000 nM | IC50 (cancer cell lines; Homo sapiens, A204, 72 h, A204 cell line (muscle)): 140 nM | IC50 (cancer cell lines; Homo sapiens, A549, 72 h, A549 cell line, lung): 240 nM | IC50 (cancer cell lines; Homo sapiens, A673, 72 h, A673 cell line (bone)): 510 nM | IC50 (cancer cell lines; Homo sapiens, A2780, 72 h, A2780 cell line (ovary)): 680 nM | IC50 (cancer cell lines; Homo sapiens, A-375, 72 h, A375 cell line (skin)): 730 nM | IC50 (cancer cell lines; Homo sapiens, A-431, 72 h, A431 cell line (skin)): 40 nM | IC50 (cancer cell lines; Homo sapiens, ACHN, ACHN cell line (kidney)): 50 nM | IC50 (cancer cell lines; Homo sapiens, ASPC1, 72 h, ASPC1 cell line (pancreas)): 10 nM | IC50 (cancer cell lines; Homo sapiens, BT-20, 72 h, BT20 cell line (breast)): > 50000 nM | IC50 (cancer cell lines; Homo sapiens, BXPC-3, 72 h, BXPC3 cell line (pancreas)): 10 nM | IC50 (cancer cell lines; Homo sapiens, C-33-A, C33A cell line, endometrial): 130 nM | IC50 (cancer cell lines; Homo sapiens, CAKI-1, 72 h, CAKI1 cell line (kidney)): 400 nM | IC50 (cancer cell lines; Homo sapiens, COLO 205, 72 h, COLO205 cell line (colon)): 60 nM | IC50 (cancer cell lines; Homo sapiens, COLO-678, 72 h, COLO678 cell line (colon)): > 50000 nM | IC50 (cancer cell lines; Homo sapiens, Ca-Ski, CASKI cell line, endometrial): 6170 nM | IC50 (cancer cell lines; Homo sapiens, Caco-2, 72 h, CACO2 cell line (colon)): > 50000 nM | IC50 (cancer cell lines; Homo sapiens, Calu-6, 72 h, CALU6 cell line (lung)): 250 nM | IC50 (cancer cell lines; Homo sapiens, DLD-1, 72 h, DLD1 cell line (colon)): 3660 nM | IC50 (cancer cell lines; Homo sapiens, DU-145, 72 h, DU145 cell line (prostate)): 1340 nM | IC50 (cancer cell lines; Homo sapiens, EFO-21, 72 h, EFO21 cell line (ovary)): 3620 nM | IC50 (cancer cell lines; Homo sapiens, EJ-28, 72 h, EJ28 cell line (bladder)): 190 nM | IC50 (cancer cell lines; Homo sapiens, Granta-519, 72 h, GRANTA-519 cell line (hematological)): 30 nM | IC50 (cancer cell lines; Homo sapiens, HCT-15, 72 h, HCT15 cell line (colon)): 1580 nM | IC50 (cancer cell lines; Homo sapiens, HCT-116, 72 h, HCT116 cell line (colon)): 1180 nM | IC50 (cancer cell lines; Homo sapiens, HEK293, 72 h, HEK293 cell line (kidney)): > 50000 nM | IC50 (cancer cell lines; Homo sapiens, HL-60, 72 h, HL-60 cell line (hematological)): 810 nM | IC50 (cancer cell lines; Homo sapiens, HT-29, 72 h, HT29 cell line (colon)): 160 nM | IC50 (cancer cell lines; Homo sapiens, HT-1080, 72 h, HT1080 cell line (connective tissue)): 190 nM | IC50 (cancer cell lines; Homo sapiens, HeLa, HELA cell line, endometrial): > 50000 nM | IC50 (cancer cell lines; Homo sapiens, HepG2, 72 h, HEPG2 cell line (liver)): 540 nM | IC50 (cancer cell lines; Homo sapiens, Hs-578T, HS578T cell line, breast): > 50000 nM | IC50 (cancer cell lines; Homo sapiens, IGROV-1, 72 h, IGROV1 cell line (ovary)): 1650 nM | IC50 (cancer cell lines; Homo sapiens, IMR-90, 72 h, IMR90 cell line, lung): > 50000 nM | IC50 (cancer cell lines; Homo sapiens, J82, 72 h, J82 cell line (bladder)): 1080 nM | IC50 (cancer cell lines; Homo sapiens, JEG-3, 72 h, JEG3 cell line (placenta)): 100 nM | IC50 (cancer cell lines; Homo sapiens, JIMT-1, 72 h, JIMT1 cell line (breast)): 890 nM | IC50 (cancer cell lines; Homo sapiens, K562, 72 h, K-562 cell line (hematological)): > 50000 nM | IC50 (cancer cell lines; Homo sapiens, Kasumi 1, 72 h, KASUMI-1 cell line (hematological)): 400 nM | IC50 (cancer cell lines; Homo sapiens, L-363, 72 h, L-363 cell line (hematological)): > 50000 nM | IC50 (cancer cell lines; Homo sapiens, LoVo, LOVO cell line (colon)): 30 nM | IC50 (cancer cell lines; Homo sapiens, MCF7, 72 h, MCF7 cell line (breast)): 1760 nM | IC50 (cancer cell lines; Homo sapiens, MDA-MB-231, 72 h, MDAMB231 cell line (breast)): 370 nM | IC50 (cancer cell lines; Homo sapiens, MDA-MB-435, 72 h, MDAMB435 cell line (skin)): 2520 nM | IC50 (cancer cell lines; Homo sapiens, MDA-MB-436, 72 h, MDAMB436 cell line (breast)): 140 nM | IC50 (cancer cell lines; Homo sapiens, MDA-MB-468, 72 h, MDAMB468 cell line (breast)): 770 nM | IC50 (cancer cell lines; Homo sapiens, MG-63, 72 h, MG63 cell line (bone)): 680 nM | IC50 (cancer cell lines; Homo sapiens, MHH-ES-1, 72 h, MHHES1 cell line (bone)): 1930 nM | IC50 (cancer cell lines; Homo sapiens, MIA PaCa-2, 72 h, MIAPACA2 cell line (pancreas)): > 50000 nM | IC50 (cancer cell lines; Homo sapiens, MINO, MINO cell line (hematological)): 10 nM | IC50 (cancer cell lines; Homo sapiens, MV4-11, 72 h, MV4-11 cell line (hematological)): 140 nM | IC50 (cancer cell lines; Homo sapiens, NCI-H23, 72 h, NCI-H23 cell line (lung)): 980 nM | IC50 (cancer cell lines; Homo sapiens, NCI-H82, 72 h, NCIH82 cell line (lung)): 390 nM | IC50 (cancer cell lines; Homo sapiens, NCI-H292, 72 h, NCIH292 cell line (lung)): > 50000 nM | IC50 (cancer cell lines; Homo sapiens, NCI-H460, 72 h, NCIH460 cell line (lung)): 200 nM | IC50 (cancer cell lines; Homo sapiens, OVCAR-3, 72 h, OVCAR3 cell line (ovary)): 3090 nM | IC50 (cancer cell lines; Homo sapiens, OVCAR-4, 72 h, OVCAR4 cell line (ovary)): > 50000 nM | IC50 (cancer cell lines; Homo sapiens, PANC-1, 72 h, PANC1 cell line (pancreas)): 1620 nM | IC50 (cancer cell lines; Homo sapiens, PC-3, 72 h, PC3 cell line (prostate)): 2600 nM | IC50 (cancer cell lines; Homo sapiens, PLC-PRF-5, 72 h, PLCPRF5 cell line (liver)): > 50000 nM | IC50 (cancer cell lines; Homo sapiens, Panc1005, 72 h, PANC1005 cell line (pancreas)): > 50000 nM | IC50 (cancer cell lines; Homo sapiens, RD, RD cell line (muscle)): 420 nM | IC50 (cancer cell lines; Homo sapiens, Ramos, RAMOS cell line (hematological)): 160 nM | IC50 (cancer cell lines; Homo sapiens, SAOS-2, 72 h, SAOS2 cell line (bone)): 90 nM | IC50 (cancer cell lines; Homo sapiens, SF-268, 72 h, SF268 cell line (brain)): 220 nM | IC50 (cancer cell lines; Homo sapiens, SF-295, 72 h, SF295 cell line (brain)): 3900 nM | IC50 (cancer cell lines; Homo sapiens, SK-BR-3, 72 h, SKBR3 cell line (breast)): 30 nM | IC50 (cancer cell lines; Homo sapiens, SK-HEP1, 72 h, SKHEP1 cell line (liver)): 770 nM | IC50 (cancer cell lines; Homo sapiens, SK-LMS-1, 72 h, SKLMS1 cell line (uterus)): 1150 nM | IC50 (cancer cell lines; Homo sapiens, SK-MEL-5, 72 h, SKMEL5 cell line, skin): > 50000 nM | IC50 (cancer cell lines; Homo sapiens, SK-MEL-28, 72 h, SKMEL28 cell line (skin)): 2900 nM | IC50 (cancer cell lines; Homo sapiens, SK-N-AS, SKNAS cell line (brain)): > 50000 nM | IC50 (cancer cell lines; Homo sapiens, SK-N-SH, SKNSH cell line (brain)): > 50000 nM | IC50 (cancer cell lines; Homo sapiens, SK-OV-3, 72 h, SKOV3 cell line (ovary)): 410 nM | IC50 (cancer cell lines; Homo sapiens, SNB-75, 72 h, SNB75 cell line (brain)): 2820 nM | IC50 (cancer cell lines; Homo sapiens, SU-DHL10, 72 h, SU-DHL-10 cell line (hematological)): 330 nM | IC50 (cancer cell lines; Homo sapiens, SU-DHL-6, 72 h, SU-DHL-6 cell line (hematological)): 450 nM | IC50 (cancer cell lines; Homo sapiens, SW-620, 72 h, SW620 cell line (colon)): 240 nM | IC50 (cancer cell lines; Homo sapiens, T-24, 72 h, T24 cell line (bladder)): 400 nM | IC50 (cancer cell lines; Homo sapiens, TE-671, 72 h, TE671 cell line (muscle)): 170 nM | IC50 (cancer cell lines; Homo sapiens, THP-1, 72 h, THP-1 cell line (hematological)): 2140 nM | IC50 (cancer cell lines; Homo sapiens, U-87 MG, U87MG cell line (brain)): 1870 nM | IC50 (cancer cell lines; Homo sapiens, UMUC3, 72 h, UMUC3 cell line (bladder)): 1340 nM | IC50 (cancer cell lines; Homo sapiens, UO-31, 72 h, UO31 cell line (kidney)): > 50000 nM | IC50 (cancer cell lines; Homo sapiens, WSU-NHL, WSU-NHL cell line (hematological)): 380 nM | IC50 (cancer cell lines; MT-3, 72 h, MT3 cell line (breast)): 60 nM | IC50 (cancer cell lines; NCI-H358M, NCIH358M cell line (lung)): 70 nM | IC50 (cancer cell lines; PBMC, PBMC (hematological)): 700 nM | IC50 (cancer cell lines; RD-ES, RDES cell line (bone)): 6010 nM | cytotoxicity against a panel of cell lines (waterfall plot) (cancer cell lines; panel of cancer and non-cancer cell lines, figure legends FIG. 1-3): selectively cytotoxic in cancer cell lines with high DDR activity | metabolism (deamination) by human CDA (line graph) [1]: more stable than cytidine and gemcitabine
